Laboratory results published in patent EP4551202B1, “NAPHTHAZARIN DERIVATIVES FOR TREATMENT OF ONYCHOMYCOSIS” (Christian-Albrechts-Universität zu Kiel, priority 2022, dated 2024).
Read-outs that look alike come from different tables or passages of the source.

Columns and labels:
[1] = system: Trichophyton rubrum I/95 (patient isolate); test: Anti-mycotic activity assay in pathogen suspension (optical density at 600 nm); assay type: cell-based; conditions: light or radiation study, read-out: Tru IC50 with irradiation
Method: (§1) For determining the IC50 of the anti-mycotic activity of compounds, the human pathogen Candida albicans, strain DSM 1386, or clinical isolates of Trichophyton rubrum obtained from patient samples were used.
Trichophyton rubrum I/95 (patient isolate) was cultivated for 1 week on GPY (0.1% glucose, 0.05% petone, 0.01 yeast extract, 1.5% agar) at 28°C. A suspension of 5x10^4 spores/ml in M186 (1% glucose, 0.5% peptone from soybeans, 0.3% yeast extract, 0.3% malt extract) was prepared and added to each well of a microplate containing one of the pharmaceutical compounds, which were pipetted in triplicates for a final concentration of […] and 100 µM. The wells were irradiated using the custom-made light source with a peak wavelength of 519 nm. Handling of the test compounds and well plates took place in a darkened room equipped with a red-light LED to protect them from green light. After incubation for 72 h at 28 °C and 120 rpm the optical density at 600 nm was measured using the microplate reader Tecan Infinite M200.

[2] = system: Candida albicans, strain DSM 1386; test: Anti-mycotic activity assay in pathogen suspension (resazurin fluorescence); assay type: cell-based
Method: as §1
Candida albicans DSM 1386 was cultivated overnight in medium M186/3 (3.3 % glucose, 0.16 % peptone from soybeans, 0.1% yeast extract, 0.1 % malt extract). Test samples were added in triplicates to a 96-well plate for a final assay concentration of 10 µM and 100 µM of pharmaceutical compounds. 200 µl of the yeast was added to each well after diluting the overnight culture to an optical density (600 nm) of 0.03. […] Handling of the test compounds and well plates took place in a darkened room equipped with red-light LEDs to protect them from green light. Microplates were incubated for 5 h at 28 °C on a shaker at 200 rpm. Subsequently, 10 µl resazurin solution (0.3 mg/ml in phosphate buffer) was added to each well and the microplates were incubated again for 30 min before measuring fluorescence (560/590 nm) using a microplate reader (Tecan Infinite M200, Tecan, Männedorf, Switzerland). Nystatin was used as positive control.

[3] = Migration into hoof plate from lacquer, Raman spectroscopy of cross-sections; assay type: in vitro ADME, bovine; conditions: 5 days
Method: As a further analysis, a bovine hoof plate, 2 mm thickness, was arranged on water-saturated cotton gauze, and pharmaceutical compound was deposited on the opposite surface of the hoof plate. This arrangement was incubated under static conditions at room temperature for 5 days. The pharmaceutical compound was used at 5 wt.-% in a preliminary formulation of 12.5 wt.-% Eudragit RL PO, 60 wt.-% ethanol, 15 wt.-% ethyl acetate, 5 wt.-% butyl acetate, 2.5 wt.-% triacetin, which formulation should mimic the Loceryl lacquer. For comparison, the topic antimycotics amorolfin in Loceryl lacquer and ciclopirox in Ciclopoli were used in parallel.
After the incubation for 5 d, the lacquer compositions were carefully removed and cross-sections from the hoof plates were made. […] This pattern of measurement points, each at a depth greater by 10 µm, up to a depth of at least 100 µm, was used for Raman spectroscopy for presence of pharmaceutical compound.

[4] = system: Trichophyton rubrum I/95 (patient isolate); test: Anti-mycotic activity assay in pathogen suspension (optical density at 600 nm); assay type: cell-based; conditions: light or radiation study; antimycotic activity against Trichophyton rubrum; without irradiation (dark); read-out: Tru IC50 without irradiation
[5] = system: Trichophyton rubrum I/95 (patient isolates); test: Anti-mycotic activity assay from nail (infected nail model, cow horn membranes); conditions: for diffusion of the compound into the supporting agar: from cow horn membrane, infected nail model; for growth of T. rubrum in cow horn membrane: 15 µL/membrane
Method: For testing the effect of the pharmaceutical compounds in a nail, compounds were applied as a solution of 5 mg/ml or 10 mg/ml in nitrocellulose-based cosmetic nail lacquer, diluted 1: 1 with ethyl acetate, onto cow horn membranes representing nail.
Trichophyton rubrum I/95 (patient isolates) was cultivated for 1-3 weeks on GPY (0.1 % glucose, 0.05 % peptone, 0.01 yeast extract, 1.5 % agar) at 28°C. For the infected nail model, petri dishes with M186 agar (1% glucose, 0.5% peptone from soybeans, 0.3% yeast extract, 0.3% malt extract, 1.5 % agar, supplemented with 100 U/ml penicillin and […]) where inoculated with the pathogen using sterile cotton swabs. Afterwards autoclaved cow horn membranes (in DPBS-buffer solution, 100 µm thick, 8 mm in diameter) where put onto the agar (5 per petri dish) followed by incubation for 48 h at 29 °C. […] The formulations were applied to 15 µL/membrane to the cow horn membranes using an Eppendorf pipette. After incubation for another 24 h four membranes of each type (control, vehicle, 5 mg/ml or 10 mg/ml deoxyshikonin) were transferred onto fresh petri dishes with the surface to which the formulation was applied now facing the agar. […] Afterwards formulations were applied (15 µL/membrane) onto the untreated side of the membranes (facing upwards), they were allowed to dry and were irradiated again for 5 min (2x). The dishes were incubated for 24 h at 29 °C and irradiated again for 5 min (2x). After 7 days of incubation at 29 °C the dishes were evaluated. Anytime handling the compounds and the agar plates after application of the formulations the ambient light was turned off and a red-light LED was used to protect them from any activating light source.

C. albicans = test: as above; assay type: cell-based
[6] = Comparison test of antimycotic effect upon irradiation; assay type: cell-based
[7] = antimycotic activity against Trichophyton rubrum, with irradiation, peak wavelength 519 nm
[8] = DSM1386, light or radiation study, antimycotic activity against Candida albicans, with irradiation, peak wavelength 519 nm, read-out: Ca IC50 with irradiation
[9] = with irradiation at 519 nm, 5 mg/ml or 10 mg/ml in diluted nitrocellulose-based nail lacquer, evaluated after 7 days
[10] = without irradiation, compound in diluted nitrocellulose-based nail lacquer
[11] = Candida albicans, DSM1386, light or radiation study, antimycotic activity against Candida albicans, with irradiation, peak wavelength 519 nm, read-out: Ca IC50 with irradiation
[12] = 5 wt.-% in preliminary Eudragit RL PO lacquer formulation, bovine hoof plate 2 mm, room temperature, one topical application
[13] = antimycotic activity against Candida albicans, with irradiation, peak wavelength 519 nm, read-out: Ca IC50 with irradiation

Q: With O=C1C=C(Nc2ccccc2)C(=O)c2c(O)ccc(O)c21 [BJ-49] as the compound, how does the IC50 [1, 7] read?
A: The IC50 was 352 ± 150 nM.

Q: And the IC50 [2, 8]?
A: Its IC50 is 570 nM.

Q: Which IC50 [1, 7] does the source give for O=C1C=C(c2ccccc2)C(=O)c2c(O)ccc(O)c21 [BJ-39] here?
A: Its IC50 is 2.9 nM.

Q: Which “depth of migration into the keratin cross-section” value (“depth” below) ([3]; bovine) does the source give for Cc1cc(C2CCCCC2)n(O)c(=O)c1 [ciclopirox] here?
A: Its value is no more than 40 µm.

Q: For CN(C)C1=CC(=O)c2c(O)ccc(O)c2C1=O [BJ-SK-Amin], which IC50 [4] is on record?
A: Its IC50 is 8140 nM.

Q: And the IC50 [1, 7]?
A: The IC50 was 3340 nM.

Q: What about the IC50 [2, 8] of the same compound?
A: Its IC50 is 1480 nM.

Q: For CN(C)c1ccc2nc3ccc(=[N+](C)C)cc-3sc2c1 [methylene blue, reference compound], which “depth” value ([3]; bovine, 5 wt.-%) is on record?
A: Its value is 50 µm.

Q: What about the “diffusion of the compound into the supporting agar” value [5] of the same compound?
A: Its value is “diffusion of methylene blue into the supporting agar”.

Q: What about the “growth of T. rubrum in cow horn membrane” value [5, 9] of the same compound?
A: The value was “did not suppress growth”.

Q: And the “growth of T. rubrum in cow horn membrane” value [5, 10]?
A: The value was “did not suppress growth”.

Q: What about the “growth of C. albicans in cow horn membrane” value (shortened to “growth of C. albicans”) (C. albicans; with irradiation at 519 nm) of the same compound?
A: The value was “did not suppress growth”.

Q: And the “growth of C. albicans” value (C. albicans; without irradiation)?
A: Its value is “did not suppress growth”.

Q: For CCCC1=CC(=O)c2c(O)ccc(O)c2C1=O [BJ-35], which IC50 [1, 7] is on record?
A: Its IC50 is 13 ± 12.2 nM.

Q: What about the IC50 [2, 8] of the same compound?
A: Its IC50 is 599 ± 289 nM.

Q: What does the source list for CC(C)=CCC(O)C1=CC(=O)c2c(O)ccc(O)c2C1=O (stereo not shown) [Shikonin/ Alkannin]?
A: IC50 [4]: 10500 ± 6920 nM; IC50 [1, 7]: 781 ± 407 nM; IC50 [2, 11]: 1480 nM

Q: Which IC50 [1, 7] does the source give for CC(C)(C)C1=CC(=O)c2c(O)ccc(O)c2C1=O [BJ-19] here?
A: The IC50 was 244 ± 192 nM.

Q: What about the IC50 [2, 8] of the same compound?
A: The IC50 was 7650 ± 4480 nM.

Q: For NCC(=O)CCC(=O)O [5-amino laevulinic acid], which “depth” value [3, 12] is on record?
A: The value was 30 µm.

Q: And the “growth of T. rubrum in cow horn membrane” value [5, 9]?
A: Its value is “did not suppress growth”.

Q: And the “growth of T. rubrum in cow horn membrane” value [5, 10]?
A: Its value is “did not suppress growth”.

Q: And the “growth of C. albicans” value (C. albicans; with irradiation at 519 nm)?
A: The value was “did not suppress growth”.

Q: And the “growth of C. albicans” value (C. albicans; without irradiation)?
A: The value was “did not suppress growth”.

Q: Which results are given for CC(C)=CCCC1=CC(=O)c2c(O)ccc(O)c2C1=O [DOS, Deoxyshikonin]?
A: depth of migration into the keratin cross-section [3, 12]: more than 50 µm; IC50 [1, 7]: 32.2 ± 17.4 nM; growth of T. rubrum in cow horn membrane [5, 9]: effectively suppressed growth of T. rubrum; growth of T. rubrum in cow horn membrane [5, 10]: reduced compared to both controls but not suppressed; IC50 [2, 11]: 213 ± 54.7 nM; IC50 [2, 13]: 213 ± 55 nM

Q: Which “depth” value ([3]; commercial lacquers (amorolfin in Loceryl lacquer, ciclopirox in Ciclopoli), bovine hoof plate 2 mm, room temperature) does the source give for CCC(C)(C)c1ccc(CC(C)CN2C[C@@H](C)O[C@@H](C)C2)cc1 (stereo partly shown) [amorolfin] here?
A: The value was “could not be detected inside the keratin cross-section”.

Q: Which results are given for CC1=CC(=O)c2c(O)ccc(O)c2C1=O [BJ-18]?
A: IC50 [1, 7]: 87.6 ± 65.4 nM; IC50 [2, 8]: 2340 ± 846 nM; IC50 ([2]; DSM1386, light or radiation study, antimycotic activity against Candida albicans, without irradiation (dark), read-out: Ca IC50 without irradiation): 10900 ± 4080 nM

Q: With C[C@@H]1[C@H](O)[C@@H](C)/C=C/C=C/CC/C=C/C=C/C=C/C=C/C(O[C@H]2O[C@H](C)[C@@H](O)[C@H](N)[C@@H]2O)CC2O[C@](O)(CC(O)C(O)CCC(O)CC(O)CC(O)CC(=O)O[C@H]1C)CC(O)C2C(=O)O (stereo partly shown) [Nystatin, reference compound] as the compound, how does the IC50 [2, 13] read?
A: The IC50 was 1660 ± 886 nM.

Q: What about the IC50 ([2]; antimycotic activity against Candida albicans, without irradiation (dark), read-out: Ca IC50 without irradiation) of the same compound?
A: The IC50 was 692 nM.

Q: What about the “activity under irradiation compared with no irradiation” value ([2]; under irradiation, believed to be caused by decomposition under irradiation) of the same compound?
A: The value was “lower activity under irradiation”.

Q: Which IC50 [1, 7] does the source give for CCC1=CC(=O)c2c(O)ccc(O)c2C1=O [BJ-34] here?
A: Its IC50 is 24.2 ± 20.6 nM.

Q: What about the IC50 [2, 8] of the same compound?
A: The IC50 was 715 ± 209 nM.

Q: What does the source list for CC1=C(C)C(=O)c2c(O)ccc(O)c2C1=O [BJ-27]?
A: IC50 [1, 7]: 321 ± 212 nM; IC50 [2, 8]: 2750 ± 70 nM

Q: For CC(C)C1=CC(=O)c2c(O)ccc(O)c2C1=O [BJ-28], which IC50 [1, 7] is on record?
A: The IC50 was 42.7 nM.

Q: What about the IC50 [2, 8] of the same compound?
A: Its IC50 is 1040 ± 185 nM.

Q: Which “antimycotic effect upon irradiation” value [6] does the source give for O=C1C=C(O)C(=O)c2ccccc21 [2-hydroxy-1,4-naphthochinone] here?
A: The value was “essentially no antimycotic effect”.

Q: Which “depth” value ([3]; bovine, 5 wt.-%) does the source give for CCCCC1=CC(=O)c2c(O)ccc(O)c2C1=O [BJ-36] here?
A: Its value is “more than 70 µm”.

Q: And the IC50 [1, 7]?
A: Its IC50 is 1 ± 0.3 nM.

Q: And the “diffusion of the compound into the supporting agar” value [5]?
A: The value was “without diffusion of the compound into the supporting agar”.

Q: And the “growth of T. rubrum in cow horn membrane” value [5, 9]?
A: Its value is “effectively eliminated any growth”.

Q: And the “growth of T. rubrum in cow horn membrane” value [5, 10]?
A: The value was “not effective in suppressing growth”.

Q: What about the “growth of C. albicans” value (C. albicans; with irradiation at 519 nm) of the same compound?
A: Its value is “effectively eliminated any growth”.

Q: What about the “growth of C. albicans” value (C. albicans; without irradiation) of the same compound?
A: Its value is “not effective in suppressing growth”.

Q: And the IC50 [2, 8]?
A: Its IC50 is 556 ± 355 nM.

Q: Which results are given for O=C1C=CC(=O)c2c(O)ccc(O)c21 [Naphthazarin]?
A: IC50 ([1]; Trichophyton rubrum): 353 ± 237 nM; IC50 ([2]; Candida albicans, DSM1386, light or radiation study, read-out: Ca IC50 with irradiation): 632 ± 175 nM
